According to article PMC9820303, “^αN-Acetyl β-Endorphin Is an Endogenous Ligand of σ1Rs That Regulates Mu-Opioid Receptor Signaling by Exchanging G Proteins for σ2Rs in σ1R Oligomers” (International Journal of Molecular Sciences, 2022):

Experiments:
[1] = system: pMCAO in CD1 mice (wild-type and σ1R−/−); test: Permanent unilateral middle cerebral artery occlusion (pMCAO), infarct size by TTC staining; type: in vivo, mouse
Protocol: Figure 1 ^αN-acetyl β-End 1–31 reduced ischemic brain damage and diminished seizures induced by NMDAR overactivation. Implication of σ1Rs. (A) ^αN-acetyl β-End 1–31 administration diminished ischemic brain damage in wild-type but not σ1R^−/− mice. Upper panel: representative 2,3,5-triphenyltetrazolium chloride (TTC)-stained brain section images obtained from saline- and drug-treated mice (3 nmol, 1 h after surgery) 48 h after pMCAO. White indicates infarction; red staining indicates normal tissue. Lower panel: the bar graphs quantitatively compare the infarct volume based on TTC staining from wild-type mice treated with saline, β-End 1–31 and the σ1R agonist PRE084 (white bars). The reducing effect of ^αN-acetyl β-End 1–31 was counteracted by β-End 1–31 and PRE084 (gray bars). In σ1R^−/− mice, the positive effect of ^αN-acetyl β-End 1–31 was not observed. […] Effects of PPCC, β-End 1–31 and ^αN-acetyl β-End 1–31 on seizures induced by NMDA in wild-type and σ1R^−/− mice. The mice received icv 1 nmol of the NMDAR agonist NMDA 30 min after the other drugs (3 nmol) and were then immediately evaluated. […] ANOVA followed by the Holm–Sidak multiple comparisons test, p < 0.05, 1-β > 0.80.
Focal cerebral ischemia was induced via pMCAO, as described previously. Briefly, mice were anesthetized and a vertical skin incision was made between the left eye and ear under a dissection microscope. After drilling a small hole in the cranium at the level of the distal portion of the middle cerebral artery, the artery was occluded by cauterization. Flow obstruction was visually verified. Animals showing subdural haemorrhages or signs of incorrect surgery were immediately excluded from the study (<5% in each group). The mice were returned to their cages after surgery, kept at room temperature, and allowed food and water ad libitum. Strong lesion reproducibility was observed. […] The investigator performing the pMCAO surgery was blinded to the treatment group. To determine the infarct size 48 h after surgery, animals were euthanized and their brains were removed, after which six 1 mm thick coronal brain slices (Brain Matrix, WPI, UK) were obtained. The sections were stained with 2,3,5-triphenyltetrazolium chloride (1% TTC, Merck-Sigma). Samples were taken from each side of all brain sections with a digital camera (Nikon Coolpix 990, Tokyo, Japan), and the extent of unstained infarct area (expressed in mm^2) was integrated from the total area as an orthogonal projection.

σ1R oligomers-σ2R = molecular target: T1, σ1R oligomers-σ2R (Mus musculus, UniProt O55242); test: Ex vivo fishing assay: σ1R and σ2R of mouse cerebral cortex bound to agarose-σ1R oligomers; type: biochemical; conditions: wild-type mouse cerebral cortex SBM; n = 3
T1 construct: The coding region of the full-length murine σ1R (AF004927); GST (N); made in house; host or cells: E. coli BL21 (KRX) for the σ1R bait; σ2R and further σ1R come from solubilised mouse cerebral cortex synaptosomes
Protocol: (B) Θ-σ1R captured G proteins in CD1 wild-type and σ2R^−/− SBM. Ex vivo fishing assays were performed as described in Figure 4C. The data from σ2R^−/− solubilized cortical tissue were referred to the wild-type control (arbitrary value of 1). (C) The σ1R oligomers captured G proteins from σ2R^−/− mouse SBM. For each Gα subunit and the σ1R, the immunosignals in the absence of the acetylated peptide were the controls (C, value of 1). […] (A,B,D,E) Data are the mean ± SD, n = 3. Data were analyzed by pairwise Holm–Sidak multiple comparison tests following ANOVA: p < 0.05, 1-β > 0.80.
For fishing studies, solubilization of neural synaptosomes from cerebral cortices or PAG was carried out at 4 °C in RIPA buffer. The membranes were incubated at 4 °C for 16 h with agitation, and then centrifuged at 10,000× g for 5 min. The supernatant was cleared with 20 μL of Sepharose 4B (#17-0120-01, GE Healthcare) pre-equilibrated for 1 h at 4 °C, followed by centrifugation at 4300× g for 5 min. The σ1R was immobilized through covalent attachment to N-Hydroxysuccinimide (NHS)-activated Sepharose 4 fast flow (4FF, #17-0906-01; GE) according to the manufacturer’s instructions. […]

MORs = conditions: tritiated naloxone and morphine, mouse brain synaptosomes; cited from earlier work
Description: (§1) ^αN-acetyl β-End 1–31 prevented or alleviated a series of negative symptoms in animals, such as the brain injury caused by pMCAO, the convulsive syndrome promoted by icv-injection of NMDA, and mechanical allodynia caused by unilateral sciatic nerve CCI.

[2] = system: [^125I]-Tyr^27 β-End 1–31 binding site (probably the σ1R site); conditions: 5 pM [125I]-Tyr27 β-End 1–31; cited from earlier work
Description: as §1

[3] = system: CD1 mice (wild-type and σ1R−/−); conditions: single icv dose; cited from earlier work

T1 sequence (O55242 whole entry): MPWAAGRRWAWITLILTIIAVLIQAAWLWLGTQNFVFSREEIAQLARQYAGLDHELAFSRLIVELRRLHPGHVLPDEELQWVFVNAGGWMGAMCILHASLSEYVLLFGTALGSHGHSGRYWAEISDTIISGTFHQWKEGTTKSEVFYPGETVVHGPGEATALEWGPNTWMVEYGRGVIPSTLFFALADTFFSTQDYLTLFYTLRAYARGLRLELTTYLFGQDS

| Compound | infarct volume ([1]; 3 nmol icv 60 min postsurgery, 48 h after pMCAO, wild-type mice, mean ± SD, 5 to 8 mice, SD) | reduction in the infarct size ([1]; 3 nmol icv 60 min postsurgery, 48 h after pMCAO, wild-type mice, untreated infarct 5.4 ± 1.2% of total brain volume) | protective effect on pMCAO-produced ischemia in σ1R−/− mice ([1]; σ1R−/− mice, 3 nmol icv) | effect on σ1R oligomerization and σ2R presence at the agarose-σ1R bait (σ1R oligomers-σ2R) | affinity to MORs (MORs) | fraction of [^125I]-Tyr^27 β-End 1–31 specific binding abolished [2] | duration of the effect of a single dose on analgesia [3] | effect on the neuroprotection provided by ^αN-acetyl β-End 1–31 ([1]; given with ^αN-acetyl β-End 1–31 (3 nmol icv), wild-type mice) | effect on infarct volume, given alone ([1]; icv 60 min postsurgery (3 nmol), 48 h after pMCAO, wild-type mice) |
| --- | --- | --- | --- | --- | --- | --- | --- | --- | --- |
| ^αN-acetyl β-End 1–31: β-End 1–31 acetylated at N terminal Y1, α position | 1.2 ± 0.9 % of the total brain volume | ~80% | did not exhibit protective effects | reduces the extent of σ1R oligomerization, and increases the association of σ2Rs with the bait | μM range | 20–30% | 24 h | – | – |
| Cl.O=C(OCCN1CCOCC1)C1(c2ccccc2)CCCCC1 [PRE084, 2-(4-morpholinethyl)-1-phenylcyclohexanecarboxylate hydrochloride, reference compound] | – | – | – | – | – | – | – | prevented the neuroprotection | did not alter the extent of infarct volume |
